According to patent US7491533B2, “Polynucleotides encoding an isolated β-islet cell two-pore domain potassium channel” (Metabolex, Inc., priority 2002, dated 2009):

Biological target: T1, BIK channels (Homo sapiens, UniProt Q96T55, A277E)
T1 construct: expressed in transfected cells
T1 sequence (Q96T55 1-294 isoform Q96T55-3 A277E): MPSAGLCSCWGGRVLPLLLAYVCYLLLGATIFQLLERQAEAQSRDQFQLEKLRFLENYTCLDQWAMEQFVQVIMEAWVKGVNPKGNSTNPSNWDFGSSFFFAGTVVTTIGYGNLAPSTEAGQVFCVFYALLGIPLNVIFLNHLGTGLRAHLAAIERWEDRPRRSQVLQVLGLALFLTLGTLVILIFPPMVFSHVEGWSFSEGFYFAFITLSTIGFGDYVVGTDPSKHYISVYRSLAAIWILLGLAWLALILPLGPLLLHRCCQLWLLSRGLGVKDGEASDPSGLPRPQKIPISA
Experiment: FlexStation / FLIPR Membrane Potential Dye assay in stable HEK293 transfectants
Assay type: cell-based
Description: HEK293 cells stably transfected with pcDNA3.1 (circles) or the same vector allowing expression of BIK (squares) or TASK-2 (triangles) were plated in 96 well assay plates 24 h prior to analysis. Cells were incubated in 100 μl of 0.5×FLIPR Membrane Potential Dye (Molecular Devices) for 30 min. Methanadamide dilutions in DMSO were added to the wells by a FlexStation device (Molecular Devices), the fluorescence intensity changes were recorded before, during and after addition of the compound. The fluorescence intensity changes are plotted as the percent increase from the basal value recorded prior to compound addition. The values are the mean and range of duplicate wells. Similar results were obtained in three other independent experiments.
High level expression of a background/leak potassium channel such as BIK in fibroblasts results in hyperpolarization of the plasma membrane. Further, monitoring the membrane potential of these cells provides an assay for detecting small molecule blockers of BIK. We made stable HEK293 cell lines expressing BIK (and the well characterized background channel TASK2 for comparison) and characterized them using a FLIPR Membrane Potential Dye and FlexStation microplate fluorometer. […] Furthermore, BIK and TASK2 cells display a 3 to 5-fold greater change in fluorescence upon depolarization with 30 mM KCl compared to vector transfected stable cell lines. […]

## CCCCC/C=C\C/C=C\C/C=C\C/C=C\CCCC(=O)N[C@H](C)CO [Methanandamide]
HEK293 stably transfected with pcDNA3.1, BIK or TASK-2, fluorescence change as percent increase from basal
  selectivity of BIK channel inactivation (result in words): partially selective inactivator of BIK
Compound at 100 μM, HEK293 cells stably expressing BIK vs TASK2 or vector (pcDNA3.1)
  fold greater increase in fluorescence (depolarization) in BIK cells than in TASK2 or vector control cells: 3 fold
